In patent US6352958B1, “Cycloimido-substituted benzofused heterocyclic herbicides” (FMC Corporation, priority 1997, dated 2002):

Columns and labels:
Format in all cases: in vivo
[1] = system: soybean (Glycine max var. Winchester); assay: Preemergence herbicidal activity, soybean; details: Rate of Application 0.3 Kg/Ha, examined after 12-17 days
[2] = system: wheat (Triticum aestivum var. Lew); assay: Preemergence herbicidal activity, wheat; details: Rate of Application 0.3 Kg/Ha, examined after 12-17 days
[3] = system: field corn (Zea mays var. Pioneer 3732); assay: Preemergence herbicidal activity, corn; details: Rate of Application 0.3 Kg/Ha, examined after 12-17 days
[4] = system: velvetleaf (Abutilon theophrasti); assay: Preemergence herbicidal activity, velvetleaf; details: Rate of Application 0.3 Kg/Ha, examined after 12-17 days
[5] = system: morningglory (Ipomea lacunosa or Ipomea hederacea); assay: Preemergence herbicidal activity, morningglory; details: Rate of Application 0.3 Kg/Ha, examined after 12-17 days
[6] = system: common chickweed (Stellaria media); assay: Preemergence herbicidal activity, chickweed; details: Rate of Application 0.3 Kg/Ha, examined after 12-17 days
[7] = system: common cocklebur (Xanthium strumarium L.); assay: Preemergence herbicidal activity, cocklebur; details: Rate of Application 0.3 Kg/Ha, examined after 12-17 days
[8] = system: blackgrass (Aloepecurus myosuroides); assay: Preemergence herbicidal activity, blackgrass; details: Rate of Application 0.3 Kg/Ha, examined after 12-17 days
[9] = system: green foxtail (Setaria viridis); assay: Preemergence herbicidal activity, green foxtail; details: Rate of Application 0.3 Kg/Ha, examined after 12-17 days
[10] = system: Johnsongrass (Sorghum halepense); assay: Preemergence herbicidal activity, johnsongrass; details: Rate of Application 0.3 Kg/Ha, examined after 12-17 days
[11] = system: soybean (Glycine max var. Winchester); assay: Postemergence herbicidal activity, soybean; details: rate of application 0.3 Kg/Ha, rated after 12-17 days
[12] = system: wheat (Triticum aestivum var. Lew); assay: Postemergence herbicidal activity, wheat; details: rate of application 0.3 Kg/Ha, rated after 12-17 days
[13] = system: field corn (Zea mays var. Pioneer 3732); assay: Postemergence herbicidal activity, corn; details: rate of application 0.3 Kg/Ha, rated after 12-17 days
[14] = system: velvetleaf (Abutilon theophrasti); assay: Postemergence herbicidal activity, velvetleaf; details: rate of application 0.3 Kg/Ha, rated after 12-17 days
[15] = system: morningglory (Ipomea lacunosa or Ipomea hederacea); assay: Postemergence herbicidal activity, morningglory; details: rate of application 0.3 Kg/Ha, rated after 12-17 days
[16] = system: common chickweed (Stellaria media); assay: Postemergence herbicidal activity, chickweed; details: rate of application 0.3 Kg/Ha, rated after 12-17 days
[17] = system: common cocklebur (Xanthium strumarium L.); assay: Postemergence herbicidal activity, cocklebur; details: rate of application 0.3 Kg/Ha, rated after 12-17 days
[18] = system: blackgrass (Aloepecurus myosuroides); assay: Postemergence herbicidal activity, blackgrass; details: rate of application 0.3 Kg/Ha, rated after 12-17 days
[19] = system: green foxtail (Setaria viridis); assay: Postemergence herbicidal activity, green foxtail; details: rate of application 0.3 Kg/Ha, rated after 12-17 days
[20] = system: Johnsongrass (Sorghum halepense); assay: Postemergence herbicidal activity, johnsongrass; details: rate of application 0.3 Kg/Ha, rated after 12-17 days

| Compound | PREEMERGENCE HERBICIDAL ACTIVITY (% CONTROL) SOY [1] [%] | PREEMERGENCE HERBICIDAL ACTIVITY (% CONTROL) WHT [2] [%] | PREEMERGENCE HERBICIDAL ACTIVITY (% CONTROL) CRN [3] [%] | PREEMERGENCE HERBICIDAL ACTIVITY (% CONTROL) ABUTH [4] [%] | PREEMERGENCE HERBICIDAL ACTIVITY (% CONTROL) IPOSS [5] [%] | PREEMERGENCE HERBICIDAL ACTIVITY (% CONTROL) STEME [6] [%] | PREEMERGENCE HERBICIDAL ACTIVITY (% CONTROL) XANPE [7] [%] | PREEMERGENCE HERBICIDAL ACTIVITY (% CONTROL) ALOMY [8] [%] | PREEMERGENCE HERBICIDAL ACTIVITY (% CONTROL) SETVI [9] [%] | PREEMERGENCE HERBICIDAL ACTIVITY (% CONTROL) SORHA [10] [%] | Postemergence herbicidal activity (% control) SOY [11] [%] | Postemergence herbicidal activity (% control) WHT [12] [%] | Postemergence herbicidal activity (% control) CRN [13] [%] | Postemergence herbicidal activity (% control) ABUTH [14] [%] | Postemergence herbicidal activity (% control) IPOSS [15] [%] | Postemergence herbicidal activity (% control) STEME [16] [%] | Postemergence herbicidal activity (% control) XANPE [17] [%] | Postemergence herbicidal activity (% control) ALOMY [18] [%] | Postemergence herbicidal activity (% control) SETVI [19] [%] | Postemergence herbicidal activity (% control) SORHA [20] [%] |
| --- | --- | --- | --- | --- | --- | --- | --- | --- | --- | --- | --- | --- | --- | --- | --- | --- | --- | --- | --- | --- |
| CC(C)c1nc2c(-n3c(=O)cc(C(F)(F)F)n(C)c3=O)c(F)cc(Cl)c2[nH]1 [Compound 368] | 100 | 100 | 95 | 100 | 100 | 100 | 100 | 95 | 100 | 100 | 100 | 100 | 100 | 100 | 100 | 100 | 100 | 100 | 100 | 100 |
| COCc1nc2c(-n3c(=O)cc(C(F)(F)F)n(C)c3=O)c(F)cc(Cl)c2[nH]1 [Compound 370] | 100 | 100 | 95 | 100 | 100 | 100 | 100 | 90 | 100 | 100 | 100 | 95 | 100 | 100 | 100 | 100 | 100 | 100 | 100 | 100 |
| CCOC(=O)CCc1nc2c(-n3c(=O)cc(C(F)(F)F)n(C)c3=O)c(F)cc(Cl)c2[nH]1 [Compound 372] | 100 | 90 | 95 | 100 | 100 | 100 | 100 | 80 | 100 | 80 | 100 | 100 | 100 | 100 | 100 | 100 | 100 | 100 | 100 | 100 |
| Cn1c(C(F)(F)F)cc(=O)n(-c2c(F)cc(Cl)c3[nH]c(C4CCCCC4)nc23)c1=O [Compound 373] | 100 | 70 | 90 | 100 | 100 | 100 | 100 | 70 | 100 | 90 | 100 | 80 | 100 | 100 | 100 | 100 | 100 | 100 | 100 | 100 |
| Cn1c(C(F)(F)F)cc(=O)n(-c2c(F)cc(Cl)c3[nH]c(C45CC6CC(CC(C6)C4)C5)nc23)c1=O [Compound 374] | 30 | 0 | 10 | 100 | 95 | 90 | 80 | 40 | 100 | 75 | 80 | 25 | 30 | 100 | 95 | 80 | 100 | 25 | 80 | 60 |
| Cn1c(C(F)(F)F)cc(=O)n(-c2c(F)cc(Cl)c3nc(-c4ccccc4)[nH]c23)c1=O [Compound 375] | 80 | 30 | 90 | 100 | 80 | 95 | 80 | 80 | 100 | 95 | 95 | 40 | 90 | 100 | 95 | 100 | 100 | 90 | 80 | 100 |
| Cn1c(C(F)(F)F)cc(=O)n(-c2c(F)cc(Cl)c3c2nc(C(F)(F)F)n3C)c1=O [Compound 399] | 95 | 80 | 95 | 100 | 95 | 100 | 70 | 60 | 100 | 0 | 95 | 30 | 70 | 100 | 100 | 100 | 100 | 50 | 70 | 60 |
| CCOC(=O)c1cc2c(-n3c(=O)cc(C(F)(F)F)n(C)c3=O)c(F)cc(Cl)c2[nH]1 [Compound 493] | 80 | 70 | 90 | 100 | 100 | 100 | 70 | 75 | 100 | 100 | 95 | 60 | 90 | 100 | 100 | 80 | 100 | 65 | 100 | 100 |
